Measurements from patent publication US20090111736A1, “Orally-Absorbed Solid Dose Formulation for Vancomycin” (SRI International, priority 2007, published 2009).
Where a name gives a salt, the structure may show the parent alone. Read-outs that look alike come from different tables or passages of the source.

Tests used:
[1] = tested on: rat jejunum; assay: In vitro mucosal-to-serosal vancomycin transport, modified Ussing chambers, jejunum; format: in vitro ADME; settings: jejunum
From the text: We investigated regional variation in permeation of vancomycin (VCM) across various segments of rat intestine and colon in vitro by mounting isolated segments of rat intestine and colon between horizontal modified Ussing chambers. The effects of drug concentration and of addition of a p-glycoprotein inhibitor or permeation enhancer(s) as formulation additives on VCM permeation were also studied in vitro using segments of rat jejunum.
Methods: A modified Ussing system (Easy mount Ussing system, Physiological Instruments Inc., CA, Item # EM-CSYS-8) with eight sets of chambers was used for all in vitro studies; each set consisted of two parallel diffusion chambers, a heating block for temperature control, needle valves for gas flow adjustment and gas mixing, and Ag/AgCl voltage and current electrodes for measuring transepithelial voltage and for passing current.
Harvesting of required small intestinal or colon segments of a male rat was performed using experimental procedures described in the literature (Gotoh et al., J Biomol Screen (2005) 10:517-23). The harvested segments of small intestine or colon were mounted on sliders placed between the two horizontal chambers of a modified Ussing system.
VCM was dissolved in HEPES buffer pH 7.4 (Table 1) previously saturated with 100% O2 or HEPES buffer containing additives selected from permeation enhancer(s) and/or an efflux transport inhibitor (Table 2) to obtain predetermined concentrations of drug and additive(s).
Drug transport across epithelial membranes of harvested rat small intestine and colon segments, in mucosal-to-serosal (M-to-S) direction, was studied using modified Ussing Chambers. Aliquots of HEPES buffer (5 ml) were initially added to both the mucosal and serosal chambers and allowed to equilibrate for 20 minutes. The HEPES buffer in the mucosal chamber was replaced by a study sample containing VCM alone or VCM and selected additive(s) in HEPES buffer, e.g., 5 mg/mL of VCM dissolved in HEPES buffer containing 10% w/w Labrasol®. Aliquots of 0.5 mL buffer solutions were removed periodically from serosal chambers, and replaced with equal volumes of fresh warm (37±2° C.) HEPES buffer previously saturated with 100% O2. […]
Changes in transepithelial short-circuit current (in micro-Amps) and membrane resistance (in Ohms) as a function of time were monitored continuously during in vitro studies to serve as indicators of tissue viability and drug permeability, respectively. The buffer samples from the receptor chambers were analyzed for VCM content on a high pressure liquid chromatograph (HPLC; Hewlett Packard Model 1100 series).
The analysis of VCM samples was performed using a reverse phase gradient HPLC method, with a Hypersil BDS C18 column, 5 μm, 150×4.6 mm., mobile phase consisting of 5 mM potassium phosphate monobasic in water (pH 3) as solvent A and acetonitrile as solvent B at a flow rate of 1 ml/min (Farin et al., J Pharm Biomed Anal (1998) 18:367-72). The eluant was monitored by a UV/diode array detector at 280 nm.
To compare data obtained from different in vitro experiments, the apparent permeability coefficients were calculated using the equation: […]
Where dQ/dt is the linear appearance rate of mass in receiver compartment, C0 is the initial solute concentration in donor compartment, and A is the surface area (Luo et al., Drug Metab Dispos (2002) 30:763-70).

[2] = rats, cited from earlier work

CN[C@H](CC(C)C)C(=O)N[C@H]1C(=O)N[C@@H](CC(N)=O)C(=O)N[C@H]2C(=O)N[C@H]3C(=O)N[C@H](C(=O)N[C@H](C(=O)O)c4cc(O)cc(O)c4-c4cc3ccc4O)[C@H](O)c3ccc(c(Cl)c3)Oc3cc2cc(c3O[C@@H]2O[C@H](CO)[C@@H](O)[C@H](O)[C@H]2O[C@H]2C[C@](C)(N)[C@H](O)[C@H](C)O2)Oc2ccc(cc2Cl)[C@H]1O [Vancomycin hydrochloride]
Ave. Cumulative Amt VCM Released ([1]; 50 mg/ml in HEPES buffer without enhancer, 1.0 hr): 7.94 ± 5.19 µg
Ave. Cumulative Amt VCM Released ([1]; 50 mg/ml in HEPES buffer without enhancer, 1.5 hr): 22.26 ± 4.61 µg
Ave. Cumulative Amt VCM Released ([1]; 50 mg/ml in HEPES buffer without enhancer, 2.0 hr): 46.13 ± 1.25 µg
Ave. Cumulative Amt VCM Released ([1]; 50 mg/ml in HEPES buffer without enhancer, 2.5 hr): 69.54 ± 4.20 µg
Ave. Cumulative Amt VCM Released ([1]; 5% Gelucire ® 44/14 (w/w), 0.5 hr): 0.40 ± 0.79 µg
Ave. Cumulative Amt VCM Released ([1]; 5% Gelucire ® 44/14 (w/w), 1.0 hr): 3.72 ± 0.40 µg
Ave. Cumulative Amt VCM Released ([1]; 5% Gelucire ® 44/14 (w/w), 1.5 hr): 6.81 ± 1.07 µg
Ave. Cumulative Amt VCM Released ([1]; 5% Gelucire ® 44/14 (w/w), 2.0 hr): 10.87 ± 1.53 µg
Ave. Cumulative Amt VCM Released ([1]; 5% Gelucire ® 44/14 (w/w), 2.5 hr): 14.29 ± 2.36 µg
Ave. Cumulative Amt VCM Released ([1]; 5% Gelucire ® 44/14 + 5% Labrasol ® (w/w), 0.5 hr): 0.81 ± 1.40 µg
Ave. Cumulative Amt VCM Released ([1]; 5% Gelucire ® 44/14 + 5% Labrasol ® (w/w), 1.0 hr): 3.56 ± 0.25 µg
Ave. Cumulative Amt VCM Released ([1]; 5% Gelucire ® 44/14 + 5% Labrasol ® (w/w), 1.5 hr): 6.63 ± 1.67 µg
Ave. Cumulative Amt VCM Released ([1]; 5% Gelucire ® 44/14 + 5% Labrasol ® (w/w), 2.0 hr): 9.58 ± 1.81 µg
Ave. Cumulative Amt VCM Released ([1]; 5% Gelucire ® 44/14 + 5% Labrasol ® (w/w), 2.5 hr): 13.78 ± 5.10 µg
Ave. Cumulative Amt VCM Released ([1]; 5% Polysorbate-80 (w/w), 0.5 hr): 0.00 ± 0.00 µg
Ave. Cumulative Amt VCM Released ([1]; 5% Polysorbate-80 (w/w), 1.0 hr): 2.33 ± 0.24 µg
Ave. Cumulative Amt VCM Released ([1]; 5% Polysorbate-80 (w/w), 1.5 hr): 5.69 ± 1.64 µg
Ave. Cumulative Amt VCM Released ([1]; 5% Polysorbate-80 (w/w), 2.0 hr): 10.15 ± 2.82 µg
Ave. Cumulative Amt VCM Released ([1]; 5% Polysorbate-80 (w/w), 2.5 hr): 15.99 ± 3.24 µg
Ave. Cumulative Amt VCM Released ([1]; 5% Polysorbate-80 + 5% w/w Labrasol ®, 0.5 hr): 0.00 ± 0.00 µg
Ave. Cumulative Amt VCM Released ([1]; 5% Polysorbate-80 + 5% w/w Labrasol ®, 1.0 hr): 2.36 ± 0.16 µg
Ave. Cumulative Amt VCM Released ([1]; 5% Polysorbate-80 + 5% w/w Labrasol ®, 1.5 hr): 3.85 ± 0.39 µg
Ave. Cumulative Amt VCM Released ([1]; 5% Polysorbate-80 + 5% w/w Labrasol ®, 2.0 hr): 6.05 ± 0.80 µg
Ave. Cumulative Amt VCM Released ([1]; 5% Polysorbate-80 + 5% w/w Labrasol ®, 2.5 hr): 10.12 ± 1.39 µg
Ave. Cumulative Amt VCM Released ([1]; 5% TPGS ® + 5% Labrasol ® (w/w), 0.5 hr): 0.00 ± 0.00 µg
Ave. Cumulative Amt VCM Released ([1]; 5% TPGS ® + 5% Labrasol ® (w/w), 1.0 hr): 1.26 ± 1.78 µg
Ave. Cumulative Amt VCM Released ([1]; 5% TPGS ® + 5% Labrasol ® (w/w), 1.5 hr): 3.48 ± 1.13 µg
Ave. Cumulative Amt VCM Released ([1]; 5% TPGS ® + 5% Labrasol ® (w/w), 2.0 hr): 6.40 ± 2.08 µg
Ave. Cumulative Amt VCM Released ([1]; 5% TPGS ® + 5% Labrasol ® (w/w), 2.5 hr): 10.03 ± 3.20 µg
Papp value compared with VCM alone ([1]; 5% w/w Labrasol® with 5% w/w Gelucire® 44/14): slightly higher than that of VCM alone
effect on M-to-S transport of VCM ([1]; 5% w/w Labrasol® with 5% w/w Polysorbate 80): slightly reduced VCM transport
effect on M-to-S transport of VCM ([1]; 5% w/w Labrasol® with 5% w/w Vitamin E TPGS®): slightly reduced VCM transport
Ave. Cumulative Amt VCM Released ([1]; 10% Labrasol ® (w/w), 0.5 hr): 3.65 ± 1.22 µg
Ave. Cumulative Amt VCM Released ([1]; 10% Labrasol ® (w/w), 1.0 hr): 3.72 ± 2.58 µg
Ave. Cumulative Amt VCM Released ([1]; 10% Labrasol ® (w/w), 1.5 hr): 5.52 ± 1.36 µg
Ave. Cumulative Amt VCM Released ([1]; 10% Labrasol ® (w/w), 2.0 hr): 7.48 ± 1.11 µg
Ave. Cumulative Amt VCM Released ([1]; 10% Labrasol ® (w/w), 2.5 hr): 9.93 ± 1.23 µg
VCM transport compared with VCM alone or other excipients ([1]; 10% w/w Labrasol®): lowest
effect on M-to-S transport of VCM ([1]; Gelucire® 44/14 at 5% w/w): enhanced M-to-S transport
Ave. Cumulative Amt VCM Released ([1]; HEPES only, no enhancer (enhancer / bile salt study), 0.5 hr): 0.00 ± 0.00 µg
Ave. Cumulative Amt VCM Released ([1]; HEPES only, no enhancer (enhancer / bile salt study), 1.0 hr): 2.16 ± 1.47 µg
Ave. Cumulative Amt VCM Released ([1]; HEPES only, no enhancer (enhancer / bile salt study), 1.5 hr): 4.13 ± 0.74 µg
Ave. Cumulative Amt VCM Released ([1]; HEPES only, no enhancer (enhancer / bile salt study), 2.0 hr): 8.28 ± 1.80 µg
Ave. Cumulative Amt VCM Released ([1]; HEPES only, no enhancer (enhancer / bile salt study), 2.5 hr): 14.45 ± 3.07 µg
Ave. Cumulative Amt VCM Released ([1]; No SD (sodium decanoate study), 0.5 hr): 0.00 ± 0.00 µg
Ave. Cumulative Amt VCM Released ([1]; No SD (sodium decanoate study), 1.0 hr): 0.00 ± 0.00 µg
Ave. Cumulative Amt VCM Released ([1]; No SD (sodium decanoate study), 1.5 hr): 0.00 ± 0.00 µg
Ave. Cumulative Amt VCM Released ([1]; No SD (sodium decanoate study), 2.0 hr): 1.43 ± 0.10 µg
Ave. Cumulative Amt VCM Released ([1]; No SD (sodium decanoate study), 2.5 hr): 2.15 ± 0.19 µg
effect on M-to-S transport of VCM ([1]; Polysorbate 80 at 5% w/w): enhanced M-to-S transport
absolute bioavailability ([2]; oral administration of a water-in-oil-in-water (w/o/w) emulsion, VCM in inner aqueous phase): About 30%
absolute bioavailability ([2]; oral, without any added absorption enhancer or enzyme inhibitor): less than 5%
